Test results reported in paper PMC7352922, “Norditerpenoids with Selective Anti-Cholinesterase Activity from the Roots of Perovskia atriplicifolia Benth” (International Journal of Molecular Sciences, 2020).
“And” between values parts separate entries of the source, which are not always exact repeats. Equal values may be shown once. Where a name gives a salt, the structure may show the parent alone. Read-outs that look alike come from different tables or passages of the source.

Columns and labels:
[1] = target: T1, horse serum butyrylcholinesterase (Equus caballus, UniProt P81908); assay: biochemical; details: for inhibition at 10 µg/mL: read-out: % Inhibition ± S.D. at 10.0 µg·mL^−1 BChE; for IC50: read-out: BChE Inhibition IC50 (converted)
T1 construct: horse serum butyrylcholinesterase (EC 3.1.1.8, Sigma, St. Louis, MO, USA); purchased Sigma, St. Louis, MO, USA; host or cells: horse serum
T1 sequence (P81908 whole entry): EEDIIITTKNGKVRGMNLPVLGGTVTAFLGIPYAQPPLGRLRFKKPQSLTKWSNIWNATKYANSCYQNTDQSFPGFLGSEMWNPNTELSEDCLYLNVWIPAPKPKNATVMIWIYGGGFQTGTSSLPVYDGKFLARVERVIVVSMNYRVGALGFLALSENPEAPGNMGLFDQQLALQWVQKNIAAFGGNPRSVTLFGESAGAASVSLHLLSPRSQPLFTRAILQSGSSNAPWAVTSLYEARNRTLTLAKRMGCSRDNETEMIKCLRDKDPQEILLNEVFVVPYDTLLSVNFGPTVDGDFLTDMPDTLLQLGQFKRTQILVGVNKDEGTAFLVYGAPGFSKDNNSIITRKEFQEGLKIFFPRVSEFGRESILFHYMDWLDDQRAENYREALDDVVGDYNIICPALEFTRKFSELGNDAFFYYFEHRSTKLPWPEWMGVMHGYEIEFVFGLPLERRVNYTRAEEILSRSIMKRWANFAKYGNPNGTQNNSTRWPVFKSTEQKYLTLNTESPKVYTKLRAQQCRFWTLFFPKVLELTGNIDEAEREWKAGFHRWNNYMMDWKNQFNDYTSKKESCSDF
Procedure: (§1) A modified spectrophotometric method of Ellman et al. was used for the determination of inhibitory activity against AChE and BChE. Electric eel acetylcholinesterase (Type-VI-S, EC 3.1.1.7, Sigma, St. Louis, MO, USA) and horse serum butyrylcholinesterase (EC 3.1.1.8, Sigma, St. Louis, MO, USA) were used as the test enzymes and acetylthiocholine iodide and butyrylthiocholine chloride (Sigma, St. Louis, MO, USA) were employed as the respective substrates. The ChE activity was evaluated with the detection reagent 5,5′-dithio-bis(2-nitrobenzoic) acid (DTNB, Sigma, St. Louis, MO, USA). All the other reagents and conditions were the same as described in our previous publication. In brief, the following reaction mixture was added by a multichannel automatic pipette (Gilson Pipetman, Villiers Le Bel, France) in a 96-well microplate and incubated for 15 min at 25 °C: 140 µL of […] sodium phosphate buffer (pH 8.0), 20 µL of […] DTNB, 20 µL of sample solutions (0.1–10 µg/mL) and 20 µL of acetylcholinesterase/butyrylcholinesterase solution (0.2 µM). The reaction was then initiated with the addition of 10 µL of acetylthiocholine iodide or butyrylthiocholine chloride (2 mM). […] Galanthamine (Sigma, St. Louis, MO, USA)—an alkaloid isolated from snowdrop—was employed as the reference inhibitory drug.
(§2) The measurements and calculations were performed using SoftMax PRO 4.3.2.LS software (Molecular Devices, San Jose, CA, USA). […] The extent of the enzymatic reaction was calculated based on the following equation: E = (C − T)/C × 100, where E is the activity of the enzyme. E expresses the effect of the test sample or the positive control on acetylcholinesterase and butyrylcholinesterase enzyme activity expressed as the percentage of the […] in the presence of the test sample or positive control. C is the absorbance of the control solvent (blank) in the presence of an enzyme, and T is the absorbance of the tested sample (plant extract or positive control in the solvent) in the presence of an enzyme.
(§3) Statistical differences between the reference and the sample groups were evaluated by one-way ANOVA (Statistica 13PL, StatSoft, Cracow, Poland) with Dunnett’s multiple comparison post-hoc test for which p < 0.05 was considered to be significant (* p < 0.05; ** p < 0.01; *** p < 0.001, **** p < 0.0001).

[2] = target: T1, horse serum butyrylcholinesterase; assay: biochemical; details: BChE; for assumed competitive inhibition, substrate concentration = 1 mM; read-out: Ki app
[3] = target: T2, Electric eel acetylcholinesterase (Electrophorus electricus, UniProt O42275); assay: biochemical; details: for inhibition at 10 µg/mL: read-out: % Inhibition ± S.D. at 10.0 µg·mL^−1 AChE, at 10.0 µg·mL^−1; for IC50: read-out: AChE IC50
T2 construct: purchased Sigma, St. Louis, MO, USA Type-VI-S
T2 sequence (O42275 24-633): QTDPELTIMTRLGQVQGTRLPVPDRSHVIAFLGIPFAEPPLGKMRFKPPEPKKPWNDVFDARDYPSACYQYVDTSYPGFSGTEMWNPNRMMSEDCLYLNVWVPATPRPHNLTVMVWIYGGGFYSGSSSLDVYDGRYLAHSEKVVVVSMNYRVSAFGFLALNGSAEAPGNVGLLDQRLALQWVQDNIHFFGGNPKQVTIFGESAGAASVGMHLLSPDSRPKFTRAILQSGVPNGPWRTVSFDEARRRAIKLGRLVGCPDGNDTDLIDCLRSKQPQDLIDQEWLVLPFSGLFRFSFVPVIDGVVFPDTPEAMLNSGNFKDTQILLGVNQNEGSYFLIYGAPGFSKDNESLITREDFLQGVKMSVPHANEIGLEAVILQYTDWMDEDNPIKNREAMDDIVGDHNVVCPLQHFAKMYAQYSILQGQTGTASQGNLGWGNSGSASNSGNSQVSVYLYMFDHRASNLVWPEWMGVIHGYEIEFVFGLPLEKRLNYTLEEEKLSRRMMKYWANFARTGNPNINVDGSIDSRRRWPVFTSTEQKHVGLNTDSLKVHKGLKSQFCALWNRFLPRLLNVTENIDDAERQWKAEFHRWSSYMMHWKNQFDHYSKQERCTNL
Procedure: as §1, §2, §3

cholinesterase = details: cited from earlier work
[4] = test system: several cancer cell lines; details: isolated from rhizomes of Salvia tebesana Bunge; cited from earlier work

| Molecule | % Inhibition ± S.D. at 10.0 µg·mL^−1 BChE ([1]; at 10.0 µg·mL^−1) [%] | inhibition at 10 µg/mL ([1]; at 10.0 µg·mL^−1) [%] | IC50 [1] | Ki [2] [µM] | further results |
| --- | --- | --- | --- | --- | --- |
| CC(=O)O[C@@H]1CCC(C)(C)c2ccc3c(c21)C(=O)C(=O)C1=C3OC[C@@H]1C [Compound 1, (1R,15R)-1-acetoxycryptotanshinone] | 95.9 ± 0.0 | 95.9 | 2.4 µM and 2.37 µM | 1.34 |  |
| CC(=O)O[C@@H]1CCC(C)(C)c2ccc3c(c21)C(=O)C(=O)c1c(C)coc1-3 [Compound 2, (1R)-1-acetoxytanshinone IIA] | 85.3 ± 4.3 | 85.3 | 7.9 µM and 7.86 µM | 4.59 |  |
| C[C@H]1COC2=C1C(=O)C(=O)c1cc3c(cc12)C(C)(C)CCC3=O [Compound 3, (R)-3,10,10-trimethyl-2,3,9,10-tetrahydroanthra[1,2-b]furan-4,5,7(8H)-trione] | 87.3 ± 1.0 | 87.3 | 50.8 µM | 30 | inhibition at 10 µg/mL [3]: ≤ 50%; IC50 [3]: 330 µM |
| Cc1cc2c(cc(O)c1=O)C1(CO)CCCC(C)(C)C1CC2 (centres unmarked) [Compound 4, isograndifoliol] |  | 98.6 | 0.9 µM and 0.893 µM and 0.89 µM | 0.47 | BChE Inhibition IC50 [1]: below one micromole; inhibition at 10 µg/mL [3]: ≤ 50%; IC50 [3]: > 340 µM and 343 µM |
| COc1ccc2c3c1O[C@H]1C[C@@H](O)C=C[C@@]31CCN(C)C2 [Galanthamine hydrobromide, reference compound] |  |  |  |  | inhibition at 10 µg/mL [1]: 86.8 ± 2.9% |
| C[C@H]1COC2=C1C(=O)C(=O)c1c2ccc2c1CCCC2(C)C [cryptotanshinone] |  |  |  |  | cholinesterase inhibitory activity (cholinesterase): only moderate |
| Aegyptinone A |  |  |  |  | cytotoxic activity against several cancer cell lines [4]: moderate |
